Data taken from patent EP4650351A1, “INHIBITOR OF COMPLEMENT FACTOR B” (Nanjing Chia Tai Tianqing Pharmaceutical Co., Ltd., priority 2023, dated 2024).

Tests used:
[1] = target: T1, human complement factor B (Homo sapiens, UniProt P00751); assay: TR-FRET competitive binding assay of human complement factor B (Cy5-labeled probe); settings: inhibitory activity against complement factor B; biotin-labeled factor B 25 nM, Cy5 probe 75 nM, 4 °C
T1 construct: purchased ComplementTech A135

[2] = system: alternative complement pathway in human serum; assay: Complement deposition assay of serum alternative pathway (Wieslab Complement system Alternative pathway kit); assay type: biochemical; settings: human serum diluted 18-fold, 37 °C 60 minutes, absorbance 405 nm
Method: The Wieslab® Complement system Alternative pathway kit (WIESLAB® Complement system Alternative pathway AP330 RUO) was used to detect the inhibitory activity of the compounds on the alternative complement pathway in human serum. Human serum was diluted 18-fold with the kit diluent. The diluted serum was added to a 96-well plate at 130 µL/well. Using a compound titrator (Tecan, D300e), test compounds at corresponding concentrations were added. The test concentration of the compounds started at 10 µM, with 3-fold serial dilution for 6 concentration points, detected in single wells. The DMSO ratio was uniformly adjusted to 0.1% using DMSO in all drug-treated wells. In the positive control wells, 0.1% DMSO and 130 µL of diluted serum were added; in the negative control wells, 0.1% DMSO and 130 µL of the kit diluent were added. The mixtures were pre-incubated at room temperature for 15 min. The incubated mixtures were transferred to the 96-well plate provided by the kit at 100 µL per well, incubated at 37 °C for 60 minutes, and the liquid in the wells was discarded. 300 µL of the washing solution in the kit was added to each well. The wells were washed three times. 100 µL of the conjugated antibody Conjugate in the kit was added to each well, and it was incubated at room temperature for 30 minutes. The liquid in the wells was removed. 300 µL of the washing solution in the kit was added to each well and the wells were washed three times. 100 µL of the substrate solution was added to each well and incubated at room temperature for 30 minutes. […] Table 2. Results of complement deposition in serum alternative pathway

[3] = Pharmacokinetic study in mice; assay type: in vivo; settings: mouse, 10 mg/kg, PO (10 mpk), male ICR (CD-1) mice, plasma
Method: Experimental Example 3: Pharmacokinetic study in mice
Purpose of the experiment: To investigate the plasma pharmacokinetics in male ICR (CD-1) mice after single intravenous administration and gavage administration of the compounds of the present disclosure.
Experimental animals: Male ICR (CD-1) mice, body weight 32-35 g; supplier: Vital River Laboratory Animal Technology Co., Ltd.
Experimental procedures: Intravenous Administration (IV); Oral Gavage (PO); the dose was 10 mg/kg (vehicle: water (containing 0.5% methylcellulose (w/v) and 0.5% Tween 80 (v/v)).
Sample collection: At each set time point, 40 µL of blood was collected from the orbital sinus of the experimental animals. Whole blood samples were placed in anticoagulant tubes containing EDTA-K2. The whole blood samples were centrifuged at 1500 g for 10 min to separate plasma. The upper-layer plasma samples were collected into sample tubes for LC-MS/MS analysis.
Data analysis: Plasma concentrations were processed using the non-compartmental model in WinNonlin™Version6.3 (Pharsight, Mountain View, CA) pharmacokinetic software. Pharmacokinetic parameters Cl, T1/2, Cmax, and AUC0-24 were calculated using the linear-log trapezoidal method, and the results were shown in the table below. Table 3. Results of the pharmacokinetic study

[4] = system: collagen antibody and lipopolysaccharide-induced arthritis (CAIA); assay: Collagen antibody-induced mouse arthritis model (Experimental Example 4); assay type: in vivo, BALB/c mice; settings: Mean, 20 mg/kg oral twice a day
Method: Experimental animals: BALB/c mice, male, 6-8 weeks, 18-20 g; supplier: Beijing Vital River Laboratory Animal Technology Co., Ltd. 1. […] 2. Administration: Table 4. Administration groups and administration schemes [table] The data were analyzed by One-way ANOVA/Dunnett's using Graphpad Prism and by Repeat Measurement ANOVA/Bonferroni using SPSS. P< 0.05 was considered to indicate a significant difference. Arthritis scoring: Starting from the day of modeling, the incidence of arthritis in the limbs of the animals in each group was observed three times a week until the end of the experiment. According to the different degrees of lesions (erythema and swelling), the scoring was carried out according to the standard of 0-4 points. […] Joint swelling: Starting from the day of modeling, the thickness of the left and right foot pads of the animals was measured three times a week using a micrometer (Mitutoyo, 0-25 mm, minimal 0.001 mm) until the end of the experiment.

[5] = system: collagen antibody and lipopolysaccharide-induced arthritis (CAIA); assay: Pharmacodynamic study in the mouse CAIA model (Experimental Example 5); assay type: in vivo, BALB/c mice; settings: Mean; 20mg/kg bid oral, Day0-Day14; larger AUC = greater severity
Method: Experimental Animals: BALB/c mice, male, 6-8 weeks, 18-20 g; Supplier: Shanghai Jihui Laboratory Animal Care Co., Ltd 1. Induction of the mouse CAIA model: On Day 0, all mice were intravenously injected via the tail vein with 0.15 mL of Arthrogen-CIA 5-clone mixed type II collagen antibody (10 mg/mL, Chondrex). […] 2. Administration: Table 7. Administration groups and administration schemes [table] The experimental data are expressed as mean±standard error (mean ± S.E.M.). The data were analyzed by One-way ANOVA/Dunnett's using Graphpad Prism and by Repeat Measurement ANOVA/Bonferroni using SPSS. P< 0.05 was considered to indicate a significant difference. Arthritis scoring: Starting from the day of modeling, the incidence of arthritis in the limbs of the animals in each group was observed three times a week until the end of the experiment. According to the different degrees of lesions (erythema and swelling), the scoring was carried out according to the standard of 0-4 points. […] The larger the AUC, the greater the severity of arthritis was. […] Arthritis score AUC

T1 sequence (P00751 26-764): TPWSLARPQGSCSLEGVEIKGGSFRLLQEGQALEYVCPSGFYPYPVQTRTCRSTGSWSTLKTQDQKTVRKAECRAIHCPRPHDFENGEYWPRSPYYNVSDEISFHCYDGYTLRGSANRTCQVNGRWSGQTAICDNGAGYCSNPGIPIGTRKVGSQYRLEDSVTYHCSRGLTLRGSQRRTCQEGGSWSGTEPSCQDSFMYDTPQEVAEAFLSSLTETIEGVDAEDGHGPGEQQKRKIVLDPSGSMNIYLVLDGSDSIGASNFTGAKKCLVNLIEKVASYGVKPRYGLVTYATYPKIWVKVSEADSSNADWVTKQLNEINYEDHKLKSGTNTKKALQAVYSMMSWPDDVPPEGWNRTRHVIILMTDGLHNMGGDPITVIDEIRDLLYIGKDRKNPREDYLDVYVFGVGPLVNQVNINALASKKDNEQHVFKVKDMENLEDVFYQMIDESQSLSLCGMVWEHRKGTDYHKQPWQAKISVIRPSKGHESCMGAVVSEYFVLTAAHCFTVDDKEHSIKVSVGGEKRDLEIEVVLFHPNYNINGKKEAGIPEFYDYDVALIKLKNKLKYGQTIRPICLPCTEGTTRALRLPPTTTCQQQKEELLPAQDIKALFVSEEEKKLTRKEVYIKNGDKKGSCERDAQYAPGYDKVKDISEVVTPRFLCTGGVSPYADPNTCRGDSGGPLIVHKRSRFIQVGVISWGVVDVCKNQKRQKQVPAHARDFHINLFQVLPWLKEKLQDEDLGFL

COc1cc(C)c2[nH]ccc2c1O[C@@H]1CCN(CC(F)F)C[C@H]1c1ccc(C(=O)O)cc1 [Example 13a-2, 4-((3R,4R)-1-(2,2-difluoroethyl)-4-((5-methoxy-7-methyl-1H-indol-4-yl)oxy)piperidin-3-yl)benzoic acid]
IC50 [1]: 6 nM | IC50 [2]: 54.1 nM | Cmax [3]: 1290 ng/mL | AUC(0-t) ([3]; read-out: AUC0-24): 9680 ng·h/mL | Arthritis score ([4]; Day0): 0.00 | Thickness of foot pads (mm) ([4]; Day0): 1.60 mm | Arthritis score ([4]; Day3): 0.00 | Thickness of foot pads (mm) ([4]; Day3): 1.607 mm | Arthritis score ([4]; Day5): 1.17 | Thickness of foot pads (mm) ([4]; Day5): 1.632 mm | Arthritis score ([4]; Day7): 1.83 | Thickness of foot pads (mm) ([4]; Day7): 1.665 mm | Arthritis score ([4]; Day10): 1.50 | Thickness of foot pads (mm) ([4]; Day10): 1.666 mm | Arthritis score ([4]; Day12): 1.33 | Thickness of foot pads (mm) ([4]; Day12): 1.661 mm | Arthritis score ([4]; Day14): 1.50 | Thickness of foot pads (mm) ([4]; Day14): 1.669 mm

COc1cc(C)c2[nH]ccc2c1O[C@@H]1CCN(CC(F)(F)F)C[C@H]1c1ccc(C(=O)O)cc1 [Example 14a-2, 4-((3R,4R)-4-((5-methoxy-7-methyl-1H-indol-4-yl)oxy)-1-(2,2,2-trifluoroethyl)piperidin-3-yl)benzoic acid]
IC50 [1]: 10.2 nM | IC50 [2]: 59.3 nM | Cmax [3]: 1370 ng/mL | AUC(0-t) ([3]; read-out: AUC0-24): 6690 ng·h/mL | Arthritis score AUC [5]: 3.00

COc1cc(C)c2[nH]ccc2c1SC1CCN(CC(F)F)CC1c1ccc(C(=O)O)cc1 (single isomer, unassigned) [Example 16-2]
IC50 [1]: 12.4 nM | IC50 [2]: […] | Cmax ([3]; in vivo): 601 ng/mL | AUC(0-t) at 24 h ([3]; in vivo, read-out: AUC0-24): 5750 ng·h/mL | Arthritis score AUC [5]: 7.25
